What was measured:
[1] = test system: male Charles River rats; assay: D'Amour-Smith rat tail-flick procedure (radiant heat, 8 second cut-off), intraventricular injection; assay type: in vivo
Procedure: Intraventricular cannulae, made of 27-gauge stainless steel tubing, are implanted in 300-400 g. male Charles River rats under pentobarbital anesthesia. After a recovery period of at least one week, the rats are restrained in a wire-mesh cylindrical chamber so that the tip of the tail can be positioned at the focal point of a radiant heat source. After an acclimatistation period of 5 minutes, the lamp is turned on and an electric clock activated. Movement of the tip of the tail exposes a photocell to the lamp, which turns off the thermal stimulus and stops the clock. If a rat fails to move its tail within 8 seconds, the heat is automatically turned off to prevent blistering. The intensity of the lamp is adjusted in each case to produce at least three baseline tail-flick latencies of 2.5-4.5 seconds. Tests are initially made every 2 minutes, then every 5 minutes and finally every 15 minutes.
Initially, using the above outlined procedure, the effects of intraventricularly administered leucine-enkephalin are tested in rats according to the above procedure.
The rat tail flick procedure is repeated, first by the simultaneous intraventricular injection of both leucine-enkephalin and bestatin and then by the initial injection of bestatin followed one hour later by the injection of leucine-enkephalin.
The above procedure is repeated again, however, the bestatin is administered first and then one hour later the leucine-enkephalin is administered.
The effects of bestatin alone are tested in rats according to the rat tail flick procedure.

[2] = test system: leucine aminopeptidase; conditions: cited from earlier work

CC(C)C[C@H](NC(=O)[C@@H](O)[C@H](N)Cc1ccccc1)C(=O)O [bestatin, [(2S,3R)-3-amino-2-hydroxy-4-phenylbutanoyl]-L-leucine]
Tail-flick latency ([1]; 400 μg bestatin alone into lateral ventricle, Rat 2, 26 min): 8.00 s
Tail-flick latency ([1]; 400 μg bestatin alone into lateral ventricle, Rat 2, 28 min): 8.00 s
Tail-flick latency ([1]; 400 μg bestatin alone into lateral ventricle, Rat 2, 30 min): 8.00 s
Tail-flick latency ([1]; 400 μg bestatin alone into lateral ventricle, Rat 2, 35 min): 8.00 s
Tail-flick latency ([1]; 400 μg bestatin alone into lateral ventricle, Rat 2, 40 min): 8.00 s
Tail-flick latency ([1]; 400 μg bestatin alone into lateral ventricle, Rat 2, 45 min): 8.00 s
Tail-flick latency ([1]; 400 μg bestatin alone into lateral ventricle, Rat 2, 50 min): 8.00 s
Tail-flick latency ([1]; 400 μg bestatin alone into lateral ventricle, Rat 2, 55 min): 8.00 s
Tail-flick latency ([1]; 400 μg bestatin alone into lateral ventricle, Rat 2, 60 min): 8.00 s
Tail-flick latency ([1]; 400 μg bestatin alone into lateral ventricle, Rat 2, 75 min): 8.00 s
Tail-flick latency ([1]; 400 μg bestatin alone into lateral ventricle, Rat 2, 90 min): 8.00 s
Tail-flick latency ([1]; 400 μg bestatin alone into lateral ventricle, Rat 2, 105 min): 8.00 s
Tail-flick latency ([1]; 400 μg bestatin alone into lateral ventricle, Rat 2, 120 min): 8.00 s
Tail-flick latency ([1]; 400 μg bestatin alone into lateral ventricle, Rat 2, 135 min): 8.00 s
Tail-flick latency ([1]; 400 μg bestatin alone into lateral ventricle, Rat 2, 150 min): 8.00 s
Tail-flick latency ([1]; 400 μg bestatin alone into lateral ventricle, Rat 2, 165 min): 8.00 s
Tail-flick latency ([1]; 400 μg bestatin alone into lateral ventricle, Rat 2, 180 min): 8.00 s
Tail-flick latency ([1]; 400 μg bestatin alone into lateral ventricle, Rat 2, 195 min): 8.00 s
Tail-flick latency ([1]; 400 μg bestatin alone into lateral ventricle, Rat 2, 210 min): 8.00 s
Tail-flick latency ([1]; 400 μg bestatin alone into lateral ventricle, Rat 2, 225 min): 8.00 s
Tail-flick latency ([1]; 400 μg bestatin alone into lateral ventricle, Rat 2, 240 min): 8.00 s
Tail-flick latency ([1]; 400 μg bestatin alone into lateral ventricle, Rat 2, 255 min): 8.00 s
Tail-flick latency ([1]; 400 μg bestatin alone into lateral ventricle, Rat 2, 270 min): 8.00 s
Tail-flick latency ([1]; 400 μg bestatin alone into lateral ventricle, Rat 2, 285 min): 8.00 s
Tail-flick latency ([1]; 400 μg bestatin alone into lateral ventricle, Rat 2, 300 min): 5.19 s
Tail-flick latency ([1]; 400 μg bestatin alone into lateral ventricle, Rat 2, 315 min): 4.32 s
Tail-flick latency ([1]; 400 μg bestatin alone into lateral ventricle, Rat 2, 330 min): 4.11 s
Tail-flick latency ([1]; 400 μg leucine-enkephalin + 200 μg bestatin injected together into lateral ventricle, 1 rat, 2 min): 7.31 s
Tail-flick latency ([1]; 400 μg leucine-enkephalin + 200 μg bestatin injected together into lateral ventricle, 1 rat, 4 min): 7.56 s
Tail-flick latency ([1]; 400 μg leucine-enkephalin + 200 μg bestatin injected together into lateral ventricle, 1 rat, 6 min): 5.78 s
Tail-flick latency ([1]; 400 μg leucine-enkephalin + 200 μg bestatin injected together into lateral ventricle, 1 rat, 8 min): 6.69 s
Tail-flick latency ([1]; 400 μg leucine-enkephalin + 200 μg bestatin injected together into lateral ventricle, 1 rat, 10 min): 6.99 s
Tail-flick latency ([1]; 400 μg leucine-enkephalin + 200 μg bestatin injected together into lateral ventricle, 1 rat, 12 min): 8.00 s
Tail-flick latency ([1]; 400 μg leucine-enkephalin + 200 μg bestatin injected together into lateral ventricle, 1 rat, 14 min): 8.00 s
Tail-flick latency ([1]; 400 μg leucine-enkephalin + 200 μg bestatin injected together into lateral ventricle, 1 rat, 16 min): 6.50 s
Tail-flick latency ([1]; 400 μg leucine-enkephalin + 200 μg bestatin injected together into lateral ventricle, 1 rat, 18 min): 5.31 s
Tail-flick latency ([1]; 400 μg leucine-enkephalin + 200 μg bestatin injected together into lateral ventricle, 1 rat, 20 min): 2.31 s
Tail-flick latency ([1]; 400 μg leucine-enkephalin + 200 μg bestatin injected together into lateral ventricle, 1 rat, 22 min): 8.00 s
Tail-flick latency ([1]; 400 μg leucine-enkephalin + 200 μg bestatin injected together into lateral ventricle, 1 rat, 24 min): 6.23 s
Tail-flick latency ([1]; 400 μg leucine-enkephalin + 200 μg bestatin injected together into lateral ventricle, 1 rat, 26 min): 8.00 s
Tail-flick latency ([1]; 400 μg leucine-enkephalin + 200 μg bestatin injected together into lateral ventricle, 1 rat, 28 min): 8.00 s
Tail-flick latency ([1]; 400 μg leucine-enkephalin + 200 μg bestatin injected together into lateral ventricle, 1 rat, 30 min): 8.00 s
Tail-flick latency ([1]; 400 μg leucine-enkephalin + 200 μg bestatin injected together into lateral ventricle, 1 rat, 32 min): 4.90 s
Tail-flick latency ([1]; 400 μg leucine-enkephalin + 200 μg bestatin injected together into lateral ventricle, 1 rat, 34 min): 8.00 s
Tail-flick latency ([1]; 400 μg leucine-enkephalin + 200 μg bestatin injected together into lateral ventricle, 1 rat, 36 min): 8.00 s
Tail-flick latency ([1]; 400 μg leucine-enkephalin + 200 μg bestatin injected together into lateral ventricle, 1 rat, 38 min): 4.75 s
Tail-flick latency ([1]; 400 μg leucine-enkephalin + 200 μg bestatin injected together into lateral ventricle, 1 rat, 40 min): 8.00 s
Tail-flick latency ([1]; 400 μg leucine-enkephalin + 200 μg bestatin injected together into lateral ventricle, 1 rat, 42 min): 3.21 s
Tail-flick latency ([1]; 400 μg leucine-enkephalin + 200 μg bestatin injected together into lateral ventricle, 1 rat, 44 min): 3.29 s
Tail-flick latency ([1]; 400 μg leucine-enkephalin + 200 μg bestatin injected together into lateral ventricle, 1 rat, 46 min): 2.47 s
Analgesia induced by bestatin alone ([1]; 400 μg level, lateral ventricle, rats): very potent analgesia
Effect on the analgesic effects of leucine-enkephalin ([1]; bestatin administered one hour prior to leucine-enkephalin, intraventricular, rat): can be extended by bestatin
Effect on the analgesic effect of leucine-enkephalin ([1]; bestatin given simultaneously with leucine-enkephalin, intraventricular, rat): very significantly extend the analgesic effect of leucine-enkephalin
Inhibition of leucine aminopeptidase [2]: inhibitors

Source: patent US4308256A, “Method of inducing analgesia” (American Home Products Corporation, priority 1980, dated 1981)
